Measured values reported in patent US12291503B2, “Crystalline form of compound, method for preparing the same, pharmaceutical composition and use” (Beijing Konruns Pharmaceutical Co., Ltd., priority 2019, dated 2025).
Where two headings read alike, the source gives them in different places.

Experiments:
[1] = Bioavailability analysis (pharmacokinetics) of crystalline forms in mice; type: in vivo; parameters: AUClast / AUCInf: concentration or dose not given beside the values; settings: gavage, suspension in CMC-Na, mean
Description: Drug samples of different crystalline forms of the compound 1 were added to a solution of 1 CMC-Na respectively to prepare suspensions, which were administrated to mice by gavage. Drug samples of the different crystalline forms of the compound 1 were prepared into solutions in DMSO/PEG400/water and administered intravenously to mice. After drug administration, blood samples were collected from the dorsal vein of foot at different time points. After anticoagulation with heparin sodium, plasma was extracted by centrifugation. Plasma samples were analyzed by LC-MS/MS to obtain plasma drug concentrations. Pharmacokinetic parameters were calculated by WinNonlin (Phoenix™) The results of the bioavailability analysis for the crystalline form AB, the crystalline form M, and the crystalline form F are presented in Table 6.

[2] = Accelerated stability test of the crystalline form M and the crystalline form F (40±2° C., RH 75±5%, open petri dish); type: physicochemical; settings: for Change in purity in 3 months' accelerated stability test: before and after grinding/pulverization
Description: Accelerated stability test: the crystalline form M of the compound 1 was contained in a petri dish, which was placed in an open manner in a closed container (desiccator) with a relative humidity of 75±5%; the desiccator was placed in an incubator at 40±2° C. for 3 months, and small samples were taken out at 0, 1, 2, 3 months respectively for detection.
Accelerated stability test: the crystalline form F of the compound 1 was contained in a petri dish, which was put in an open manner in a closed container (desiccator) with a relative humidity of 75±5%; the desiccator was placed in an incubator at 40±2° C. for 3 months; small samples were taken out at 0, 1, 2 and 3 months respectively for detection.

NCI-H1703 cells = assay: Lung cancer subcutaneous xenotransplantation tumor model (NCI-H1703); type: in vivo, mice; settings: for Tumor Inhibition Rate %: intragastric, 28 days, below line 'Micronization'
Source text: NCIH-1703 cells were inoculated subcutaneously in mice to establish a lung cancer subcutaneous xenotransplantation tumor model. After 28 days of intragastric administration of the crystalline form AB to animals, tumors were taken and tumor volume data were collected.

AXL = biological target: T1, AXL (Homo sapiens, UniProt P30530); assay: IC50 against AXL; type: biochemical
T1 sequence (P30530 26-894): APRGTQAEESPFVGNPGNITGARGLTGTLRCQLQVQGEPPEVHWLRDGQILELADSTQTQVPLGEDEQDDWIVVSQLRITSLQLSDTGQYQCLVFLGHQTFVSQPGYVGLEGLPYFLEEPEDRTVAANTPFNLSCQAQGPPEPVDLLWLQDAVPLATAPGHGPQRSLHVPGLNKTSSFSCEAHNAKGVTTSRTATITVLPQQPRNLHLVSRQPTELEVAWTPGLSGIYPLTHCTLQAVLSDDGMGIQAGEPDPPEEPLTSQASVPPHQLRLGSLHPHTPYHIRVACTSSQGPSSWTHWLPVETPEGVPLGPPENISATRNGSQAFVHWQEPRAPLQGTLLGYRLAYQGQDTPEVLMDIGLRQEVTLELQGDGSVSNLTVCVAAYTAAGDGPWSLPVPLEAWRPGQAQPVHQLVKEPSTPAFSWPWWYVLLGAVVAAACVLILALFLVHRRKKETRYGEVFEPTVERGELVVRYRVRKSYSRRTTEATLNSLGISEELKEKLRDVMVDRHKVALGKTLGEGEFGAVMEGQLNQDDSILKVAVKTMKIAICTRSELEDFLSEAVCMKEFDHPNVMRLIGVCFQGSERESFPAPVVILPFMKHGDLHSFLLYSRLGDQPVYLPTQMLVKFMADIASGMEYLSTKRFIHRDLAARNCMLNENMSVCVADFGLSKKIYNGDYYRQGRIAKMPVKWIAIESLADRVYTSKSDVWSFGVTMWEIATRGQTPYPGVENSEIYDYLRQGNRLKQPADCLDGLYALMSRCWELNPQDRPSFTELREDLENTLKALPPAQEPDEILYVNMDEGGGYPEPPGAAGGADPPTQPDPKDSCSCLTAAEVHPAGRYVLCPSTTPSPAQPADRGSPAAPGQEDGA

[3] = Accelerated stability test of the crystalline form AB (40±2° C., RH 75%±5%, vials sealed and open); type: physicochemical; settings: for Purity (HPLC method) Open / Purity (HPLC method) Sealed: 40±2° C., RH 75%±5%
Description: Accelerated stability test: the compound 1 was contained in vials, and these vials in sealed and open manners respectively were placed in closed containers (desiccators) with a relative humidity of 75%±5%; the desiccators were placed in an incubator at a temperature of 40±2° C. for 7 months; small samples were taken out at 0, 1, 2, 7 months respectively for detection.

VEGF-R2 = VEGF-R2 (Homo sapiens, UniProt P35968); assay: IC50 against VEGF-R2; type: biochemical
VEGF-R2, sequence (P35968 20-1356): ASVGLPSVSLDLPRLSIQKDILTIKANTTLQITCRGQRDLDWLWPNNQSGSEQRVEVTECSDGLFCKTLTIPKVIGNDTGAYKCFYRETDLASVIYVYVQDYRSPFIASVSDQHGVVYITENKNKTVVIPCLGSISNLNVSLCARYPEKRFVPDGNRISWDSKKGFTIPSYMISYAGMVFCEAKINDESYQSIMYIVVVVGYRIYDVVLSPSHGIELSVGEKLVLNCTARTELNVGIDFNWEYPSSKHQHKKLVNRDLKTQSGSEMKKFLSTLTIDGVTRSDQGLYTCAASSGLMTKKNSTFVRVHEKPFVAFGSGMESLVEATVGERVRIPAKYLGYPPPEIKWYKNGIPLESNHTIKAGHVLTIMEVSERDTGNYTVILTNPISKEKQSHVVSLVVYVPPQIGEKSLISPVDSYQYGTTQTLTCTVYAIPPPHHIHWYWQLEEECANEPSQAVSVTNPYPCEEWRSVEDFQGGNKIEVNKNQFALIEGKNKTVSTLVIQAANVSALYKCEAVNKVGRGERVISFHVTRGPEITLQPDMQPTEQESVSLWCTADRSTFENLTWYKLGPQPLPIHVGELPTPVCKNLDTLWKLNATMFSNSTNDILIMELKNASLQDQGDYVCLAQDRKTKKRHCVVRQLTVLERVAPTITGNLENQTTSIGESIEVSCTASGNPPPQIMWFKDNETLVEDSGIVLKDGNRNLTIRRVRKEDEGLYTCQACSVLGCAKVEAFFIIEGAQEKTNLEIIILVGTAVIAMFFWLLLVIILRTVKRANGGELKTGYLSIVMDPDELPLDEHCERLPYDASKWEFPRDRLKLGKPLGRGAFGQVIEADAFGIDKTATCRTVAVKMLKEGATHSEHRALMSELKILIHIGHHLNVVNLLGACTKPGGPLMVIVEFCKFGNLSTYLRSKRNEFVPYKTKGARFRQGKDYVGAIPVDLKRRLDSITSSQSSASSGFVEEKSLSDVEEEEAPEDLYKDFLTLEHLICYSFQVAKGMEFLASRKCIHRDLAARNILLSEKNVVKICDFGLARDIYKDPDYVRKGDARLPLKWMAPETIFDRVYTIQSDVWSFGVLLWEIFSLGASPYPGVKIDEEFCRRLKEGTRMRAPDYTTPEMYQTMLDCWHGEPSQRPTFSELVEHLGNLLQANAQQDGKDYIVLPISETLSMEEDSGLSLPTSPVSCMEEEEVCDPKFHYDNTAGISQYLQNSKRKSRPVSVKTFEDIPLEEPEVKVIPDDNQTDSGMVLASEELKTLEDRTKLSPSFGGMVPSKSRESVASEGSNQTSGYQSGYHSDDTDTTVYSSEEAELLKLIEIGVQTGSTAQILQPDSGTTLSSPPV

MOLM-13 cells = assay: Human acute myeloid leukemia subcutaneous xenograft tumor model (MOLM-13); type: in vivo, mice
Source text: Mice were inoculated subcutaneously with MOLM-13 cells and a human acute myeloid leukemia subcutaneous xenograft tumor model was established. After 14 days of intragastric administration of the crystalline form AB to animals, tumors were taken and tumor volume data were collected.

[4] = 1 month, open, 40±2° C., RH 75±5%
[5] = 2 months, open, 40±2° C., RH 75±5%
[6] = 3 months, open, 40±2° C., RH 75±5%

## COc1cc2c(Oc3ccc(NC(=O)C4(C(=O)Nc5ccc(F)cc5)CC4)cc3F)ccnc2cc1OCCCCCC(=O)O [crystalline form M, 6-[[4-[2-fluoro-4-[[1-[(4-fluorophenyl)aminoformyl]cyclopropanecarbonyl]amino]phenoxy]-6-methoxy-7-quinolyl]oxy] hexanoic acid]
[1]
  AUCInf: 1110 ng·h/mL
  AUC_% Extrap: 39%
  AUClast: 581 ng·h/mL
  AUClast/D: 58.1 ng·h/mL per mg/kg
  Cmax: 200 ng/mL
  MRT: 5.65 h
  T1/2: 3.61 h
  Tmax: 0.917 h
[2]; 0 month
  Purity (HPLC method) After grinding: 99.22%
  Purity (HPLC method) Before grinding: 99.21%
[2]; [4]
  Purity (HPLC method) After grinding: 99.37%
  Purity (HPLC method) Before grinding: 99.36%
[2]; [5]
  Purity (HPLC method) After grinding: 99.17%
  Purity (HPLC method) Before grinding: 99.16%
[2]; [6]
  Purity (HPLC method) After grinding: 99.19%
  Purity (HPLC method) Before grinding: 99.19%
[2]
  Change in purity in 3 months' accelerated stability test: substantially no change in purity

## COc1cc2c(Oc3ccc(NC(=O)C4(C(=O)Nc5ccc(F)cc5)CC4)cc3F)ccnc2cc1OCCCCCC(=O)O [crystalline form F, 6-[[4-[2-fluoro-4-[[1-[(4-fluorophenyl)aminoformyl]cyclopropanecarbonyl]amino]phenoxy]-6-methoxy-7-quinolyl]oxy] hexanoic acid]
[1]
  AUCInf: 675 ng·h/mL
  AUC_% Extrap: 22.7%
  AUClast: 505 ng·h/mL
  AUClast/D: 50.5 ng·h/mL per mg/kg
  Cmax: 201 ng/mL
  MRT: 3.05 h
  T1/2: 1.7 h
  Tmax: 1.5 h
[2]; 0 month
  Purity (HPLC method) After grinding: 99.13%
  Purity (HPLC method) Before grinding: 99.13%
[2]; [4]
  Purity (HPLC method) After grinding: 99.32%
  Purity (HPLC method) Before grinding: 99.33%
[2]; [5]
  Purity (HPLC method) After grinding: 99.07%
  Purity (HPLC method) Before grinding: 99.09%
[2]; [6]
  Purity (HPLC method) After grinding: 99.06%
  Purity (HPLC method) Before grinding: 99.07%
[2]
  Change in purity in 3 months' accelerated stability test: substantially no change in purity

## COc1cc2c(Oc3ccc(NC(=O)C4(C(=O)Nc5ccc(F)cc5)CC4)cc3F)ccnc2cc1OCCCCCC(=O)O [crystalline form AB, 6-[[4-[2-fluoro-4-[[1-[(4-fluorophenyl)aminoformyl]cyclopropanecarbonyl]amino]phenoxy]-6-methoxy-7-quinolyl]oxy] hexanoic acid]
NCI-H1703 cells; 6.25 mg/kg
  Tumor growth: significantly inhibit tumor growth
  Tumor Inhibition Rate %: 87.0%
NCI-H1703 cells; 12.5 mg/kg
  Tumor growth: significantly inhibit tumor growth and tumor regression was observed for some mice
  Tumor Inhibition Rate %: 94.7%
NCI-H1703 cells; 12.5 mg/kg, 25 mg/kg and 50 mg/kg
  Tumor growth: significantly inhibited tumor growth and the number of tumor regression cases presented a gradual increase
NCI-H1703 cells; 25 mg/kg
  Tumor Inhibition Rate %: 98.5%
NCI-H1703 cells; 50 mg/kg
  Tumor Inhibition Rate %: 99.2%
AXL
  IC50: 0.24 nM
[1]
  AUCInf: 2414 ng·h/mL
  AUC_% Extrap: 1.19%
  AUClast: 2399 ng·h/mL
  AUClast/D: 240 ng·h/mL per mg/kg
  Cmax: 930 ng/mL
  MRT: 1.91 h
  T1/2: 0.86 h
[1]; mouse, plasma, po, 10 mg/kg, read-out: Tmax
  Tmax: 1.33 h
[3]; 1 month
  Purity (HPLC method) Open: 99.36%
  Purity (HPLC method) Sealed: 99.32%
[3]; 2 months
  Purity (HPLC method) Open: 99.35%
  Purity (HPLC method) Sealed: 99.34%
[3]; 7 months
  Purity (HPLC method) Open: 99.36%
  Purity (HPLC method) Sealed: 99.32%
[3]; accelerated stability test, 7 months
  Stability (conclusion in words): good stability
[3]; storage time 0 month
  Purity (HPLC method): 99.35%
VEGF-R2
  IC50: 0.38 nM
MOLM-13 cells; 1.5 mg/kg, intragastric, 14 days
  Tumor Inhibition Rate %: 51.5%
MOLM-13 cells; 3 mg/kg
  Tumor growth: significantly inhibited tumor growth
MOLM-13 cells; 3 mg/kg, intragastric, 14 days
  Tumor Inhibition Rate %: 81.9%
MOLM-13 cells; 6 mg/kg or 6.25 mg/kg
  Tumor growth: inhibited tumor growth, and the tumor disappeared in some mice on day 14 after the administration
MOLM-13 cells; 6 mg/kg, intragastric, 14 days
  Tumor Inhibition Rate %: 96.7%
MOLM-13 cells; 6.25 mg/kg, intragastric, 14 days
  Tumor Inhibition Rate %: 95.6%
MOLM-13 cells; intragastric, 14 days
  median effective dose EC50: 1.5 mg/kg
